Calls of active or inactive are those of the source. The calls are words filed in the database; no cut-off is given here.
Species on record: Mus musculus
Assay: Anticonvulsant activity in mouse
Assay type: functional, organism-based

Compound	Activity
C[C@@H]1CC[C@@]2(NC1)O[C@H]1C[C@H]3[C@@H]4CC=C5C[C@@H](O[C@@H]6O[C@H](CO)[C@@H](O[C@@H]7O[C@@H](C)[C@H](O)[C@@H](O)[C@H]7O)[C@H](O)[C@H]6O[C@@H]6O[C@@H](C)[C@H](O)[C@@H](O)[C@H]6O)CC[C@]5(C)[C@H]4CC[C@]3(C)[C@H]1[C@@H]2C	inactive
C[C@@H]1CC[C@@]2(NC1)O[C@H]1C[C@H]3[C@@H]4CC=C5C[C@@H](O[C@@H]6O[C@H](CO)[C@H](O)[C@H](O[C@@H]7O[C@H](CO)[C@@H](O)[C@H](O)[C@H]7O)[C@H]6O[C@@H]6O[C@@H](C)[C@H](O)[C@@H](O)[C@H]6O)CC[C@]5(C)[C@H]4CC[C@]3(C)[C@H]1[C@@H]2C	inactive

From ChEMBL document CHEMBL1151645, “Constituents of Solanum dasyphyllum Fruit” (J Nat Prod, 1985)
